According to paper PMC6120918, “Epigenetic modulator UVI5008 inhibits MRSA by interfering with bacterial gyrase” (Scientific Reports, 2018):

Assays:
[1] = molecular target: T1, DNA gyrase subunit A (Staphylococcus aureus, UniProt P20831); experiment: gyrase supercoiling assay, positive control at […]; type: biochemical
T1 construct: gene gyrA; recombinant DNA gyrase (A and B subunits; supercoiling assay kit); with DNA gyrase subunit B

[2] = molecular target: T2, DNA gyrase (Staphylococcus aureus, UniProt P0A0K8+P20831); experiment: gyrase supercoiling assay of relaxed pBR322, agarose gel; type: biochemical
T2 construct: gene gyrA; recombinant DNA gyrase (A and B subunits; supercoiling assay kit); with DNA gyrase subunits A and B together (holoenzyme; target subunit not determined)
T2 sequence (P20831 whole entry): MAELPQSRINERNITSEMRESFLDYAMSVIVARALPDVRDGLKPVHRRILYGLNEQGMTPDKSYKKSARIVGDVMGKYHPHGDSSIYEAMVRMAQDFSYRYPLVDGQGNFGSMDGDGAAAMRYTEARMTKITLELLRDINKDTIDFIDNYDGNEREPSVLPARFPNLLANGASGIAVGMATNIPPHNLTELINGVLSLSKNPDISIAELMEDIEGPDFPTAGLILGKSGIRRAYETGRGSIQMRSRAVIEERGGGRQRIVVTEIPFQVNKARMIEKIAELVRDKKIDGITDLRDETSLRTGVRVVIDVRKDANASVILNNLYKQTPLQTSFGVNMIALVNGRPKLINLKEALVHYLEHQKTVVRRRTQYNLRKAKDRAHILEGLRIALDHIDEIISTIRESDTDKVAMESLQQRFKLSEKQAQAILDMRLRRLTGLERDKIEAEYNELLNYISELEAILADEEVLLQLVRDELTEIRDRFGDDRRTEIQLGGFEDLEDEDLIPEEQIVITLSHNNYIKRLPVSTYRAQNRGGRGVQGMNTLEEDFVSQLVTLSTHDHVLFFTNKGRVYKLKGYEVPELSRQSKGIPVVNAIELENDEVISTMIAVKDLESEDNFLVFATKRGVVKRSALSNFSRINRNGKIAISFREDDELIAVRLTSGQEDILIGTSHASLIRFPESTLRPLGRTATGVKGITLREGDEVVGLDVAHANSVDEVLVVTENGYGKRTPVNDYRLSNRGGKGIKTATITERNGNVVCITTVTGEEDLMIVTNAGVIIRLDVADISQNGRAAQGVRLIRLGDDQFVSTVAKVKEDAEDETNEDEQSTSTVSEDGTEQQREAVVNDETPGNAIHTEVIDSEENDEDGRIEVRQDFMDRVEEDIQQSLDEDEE
T2 sequence (P0A0K8 2-644): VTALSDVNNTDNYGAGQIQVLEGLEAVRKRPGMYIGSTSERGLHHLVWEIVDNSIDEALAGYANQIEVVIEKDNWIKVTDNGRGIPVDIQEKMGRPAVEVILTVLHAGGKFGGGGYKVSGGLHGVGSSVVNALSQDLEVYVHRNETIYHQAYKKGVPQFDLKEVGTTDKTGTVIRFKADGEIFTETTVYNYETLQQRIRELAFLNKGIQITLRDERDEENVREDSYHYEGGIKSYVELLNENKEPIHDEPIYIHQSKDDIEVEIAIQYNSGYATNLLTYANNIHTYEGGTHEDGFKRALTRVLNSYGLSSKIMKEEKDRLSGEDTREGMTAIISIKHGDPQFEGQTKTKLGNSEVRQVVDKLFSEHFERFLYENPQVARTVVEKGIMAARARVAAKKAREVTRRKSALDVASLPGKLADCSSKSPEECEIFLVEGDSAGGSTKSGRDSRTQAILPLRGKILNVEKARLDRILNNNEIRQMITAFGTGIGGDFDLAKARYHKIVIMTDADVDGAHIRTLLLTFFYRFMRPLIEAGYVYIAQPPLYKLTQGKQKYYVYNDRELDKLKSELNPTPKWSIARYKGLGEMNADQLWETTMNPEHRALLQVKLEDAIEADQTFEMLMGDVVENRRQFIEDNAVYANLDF

T1 sequence (P20831 whole entry): as the sequence (P20831 whole entry) above

Row | SMILES | gyrase supercoiling assay, positive control at 30 μM [1] | IC50 [2]
1 | O=C(O)c1cn(C2CC2)c2cc(N3CCNCC3)c(F)cc2c1=O [ciprofloxacin] | Ciprofloxacin was used as the positive control since it blocks gyrase acting on the A subunit | –
2 | O=C(NCCSSCCNC(=O)/C(Cc1c[nH]c2ccc(Br)cc12)=N/O)/C(Cc1c[nH]c2ccc(Br)cc12)=N/O [UVI5008] | – | 20.4 µM
